According to patent publication US12030824B2 (priority 2016, dated 2024):
“Also recorded” adds a separate entry of the source.

Experiments:
plant growth = test: Applicant's observation of plant growth induction by 1-octen-3-ol; format: in vivo; conditions: very low concentrations
White flies = test: Control of white flies on greenhouse tomatoes with OPB+microbial strains; format: in vivo, Bremia spp.; conditions: single spray
[1] = test system: root knot nematode, Meloidgyne javanica; test: Split-root greenhouse trial on tomato with root knot nematode (Nemlab); format: in vivo; conditions: for overall effectiveness in nematode control: split-root greenhouse trial; for Number of Eggs/Root System, Pot 1—nem. alone (of split root system) / Numbers of female nematodes/root, Pot 1—nem. alone (of split root system) / Galling Index, Pot 1—nem. alone (of split root system) / Number of Eggs/Root System, Pot 2—agent + nematode (of split root system) / Numbers of female nematodes/root, Pot 2—agent + nematode (of split root system) / Galling Index, Pot 2—agent + nematode (of split root system): tomato split root; for Number of Eggs/Root System, Pot 1—nem. alone (of split root system) / Numbers of female nematodes/root, Pot 1—nem. alone (of split root system): root half with M. javanica only; for Galling Index, Pot 1—nem. alone (of split root system): root half with M. javanica only (systemic), scale 0 no galls to 5 100% of roots with galls; for Number of Eggs/Root System, Pot 2—agent + nematode (of split root system) / Numbers of female nematodes/root, Pot 2—agent + nematode (of split root system) / Galling Index, Pot 2—agent + nematode (of split root system): root half with M. javanica plus agent; for Galling Index, Pot 2—agent + nematode (of split root system): scale 0 no galls to 5 100%
Experimental: Comprehensive evaluation of the strains in greenhouse trials. […] It is difficult to obtain statistically valid results directly on nematode control from natural infestations since the levels of nematodes differ widely on a microsite level. Therefore, controlled greenhouse tests were conducted with Nemlab, a company in South Africa who specializes in nematode control testing. This trial was designed to consider mechanisms as well as direct contact control. As noted earlier, induction of systemic resistance was considered highly desirable, and would be expected given the generalized mechanisms of action described in Example 3, FIG. 8. To assess this character, tomato plants were grown for 6 weeks and then the roots were split into two, and each half root was placed into a separate pot with a single shoot. Except for water controls, 500-1000 eggs of the root knot nematode, Meloidgyne javanica were placed into each root system, but only one side, the various treatments were placed the biocontrol agents at 10^8 cfu/g soil. So, one root system of each plant contained nematodes only while the other contained nematodes plus the treatments. The treatments are shown below; there were six replicates per treatment. […] The experiment was designed to evaluate the ability of each strain to directly control (pot 2) and to control at-a-distance, the nematodes. […] There were a number of evaluations made of the plants at the end of the experiment, and the most important are shown below in Table 4 ([…] Index). Root galling is an index of the formation of 'knots' on roots that give root knot nematode its name and is an index of the root damage. The galls are the areas where the nematode is infesting the root and laying its eggs. The scale=0, no galls, 1, visible galling, 2, 25% of roots with galls, 3, 50% of roots with galls, 4, 75%, and 5, 100%.

[2] = test system: cabbage aphid Brevicoryne brassicae; test: Control of aphids on cabbage, single spray; format: in vivo; conditions: white flies on tomato and cabbage aphids on cabbage
soybean = test: Greenhouse soybean in sand tubes, seed treatment; format: in vivo; conditions: stem length, Spad, root weight, root volume; FIG. 4; significant at alpha=0.05 or 0.01
Experimental: Trichoderma strain K5 increases growth in soybean in the greenhouse when applied as a seed treatment. Soybean seeds were treated with either T. virens NRRL B-5025 strain or left untreated with no other microbial or chemical treatments being applied. These were planted into sand tubes and growth data was collected as the seeds emerged and the seedlings grew. […] All of the differences shown in FIG. 4 are significant at alpha=0.05 or 0.01.

nematodes = test: Field trial in Iowa in a field heavily infested with nematodes: yields; conditions: Iowa nematode-infested field
[3] = test system: plant parasitic nematodes; test: Field trials with sunflowers in South Africa, root galling; format: in vivo; conditions: sunflower, naturally infested field, FIG. 12
Experimental: Field trials with sunflowers in the field in South Africa. Trials were conducted in the Republic of South Africa. Sunflower seeds were treated with various microorganisms and planted into soil infested with plant parasitic nematodes. After the plants were mature, roots were harvested and rated for root galling caused by the nematodes. The variability was quite large in this naturally infested field.

wheat = test: Greenhouse wheat seedlings, foliar spray; format: in vivo; conditions: foliar spray vs water only; FIG. 3
Source text: Trichoderma strain K5 increases growth in greenhouse grown wheat when applied as a foliar treatment. […] Control plants were sprayed with water only.

corn = test: Corn trials in the greenhouse, seed treatment; format: in vivo; conditions: FIG. 2
Source text: Corn trials in the greenhouse. […] The growth differences are clearly evident.

corn (Zea mays) = test: Corn field trial ABM14 (1st field trial), seed treatments; format: in vivo; conditions: both ABM14 and ABM15 studies
maize = test: ABM trials and field testing of commercial products and strains on corn; format: in vivo

Molecule | induction of plant growth (plant growth) | duration of white fly control (White flies) | overall effectiveness in nematode control [1] | Number of Eggs/Root System, Pot 1—nem. alone (of split root system) [1] | Numbers of female nematodes/root, Pot 1—nem. alone (of split root system) [1] | Galling Index, Pot 1—nem. alone (of split root system) [1] | Number of Eggs/Root System, Pot 2—agent + nematode (of split root system) [1] | Numbers of female nematodes/root, Pot 2—agent + nematode (of split root system) [1] | Galling Index, Pot 2—agent + nematode (of split root system) [1] | conclusion from the combined two experiments [2] | soybean seedling growth (soybean) | yield performance (nematodes) | root galling index [3] | growth of wheat seedlings (wheat) | growth of corn plants (corn) | grain yields (corn (Zea mays)) | impact on corn in field testing (maize)
C=CC(O)CCCCC (stereo not shown) [1-octen-3-ol] | potent inducer of enhanced plant growth |  |  |  |  |  |  |  |  |  |  |  |  |  |  |  | 
Bacillus amyloliquifaciens [Bacillus AS2] |  | effects continued at least three weeks | nearly as good an effect | 2481 | 14.67 | 2.3 | 970 | 8.16 | 2.0 | highly effective |  |  |  |  |  |  | 
Trichoderma gamsii (NRRL B-50520) [Trichoderma K5] |  | effects continued at least three weeks | most effective treatment | 1298 | 4.0 | 1.3 | 493 | 8.5 | 2.17 | highly effective | significantly increase soybean seedling growth | excellent performance | lowest numerical galling index of the biological treatments | clearly larger and more vigorous; also recorded: significant growth increase | improved growth and development | largest grain yields | 
T. virens strain ATCC 20906 [Trichoderma K1] |  | effects continued at least three weeks |  | 45631 | 25.17 | 3.33 | 48765 | 35.7 | 3.17 | highly effective |  |  |  |  |  |  | negative impact on corn
